Test results from PubChem BioAssay (NCI).
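Compound exposure: 48 hours, 5 concentrations, 96-well plates. TGI denotes the concentration required for complete inhibition of growth.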

Experiments:
Assay in all cases: NCI anticancer screen, dose series, 48 h
T-47D breast = system: T-47D breast
MDA-MB-435 = system: MDA-MB-435
MCF7 breast = system: MCF7 breast
MDA-MB-231 breast = system: MDA-MB-231 breast
MDA-N = system: MDA-N

Work on `C[C@]12CC[C@@H]3c4ccc(OCCN5CCCC5)cc4CC[C@H]3[C@@H]1CCC2=O` yielded a TGI (T-47D breast) of over 100 µM, a TGI (MDA-MB-435) of over 100 µM and a TGI (MCF7 breast) of 48.2 µM. For the same compound, the TGI (MDA-MB-231 breast) was 68.7 µM and the TGI (MDA-N) was 64.3 µM.
